Activity calls are given as the source filed them.
What was measured:
[1] = target: T1, Carboxy-terminal domain RNA polymerase II polypeptide A small phosphatase 1 (Homo sapiens, UniProt Q9GZU7); assay: inhibitors of CTDSP1, concentration-response testing, biochemical assay, absorbance-based, actives from ultra-high-throughput screening (AID 540297); format: functional
T1 sequence (Q9GZU7 whole entry): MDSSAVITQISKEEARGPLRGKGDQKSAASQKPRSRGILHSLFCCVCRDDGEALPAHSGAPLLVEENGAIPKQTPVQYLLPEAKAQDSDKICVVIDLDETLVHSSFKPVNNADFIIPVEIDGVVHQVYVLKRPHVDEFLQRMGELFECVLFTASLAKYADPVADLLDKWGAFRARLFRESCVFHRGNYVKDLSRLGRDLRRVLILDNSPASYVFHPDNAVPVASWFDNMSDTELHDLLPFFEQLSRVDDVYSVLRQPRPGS

[2] = target: E3 ubiquitin-protein ligase Mdm2 (Homo sapiens, UniProt Q00987); assay: enhancers of MDM2-luciferase reporter signal, concentration-effect titration, project on inhibitors of MDM2 ubiquitin ligase, cellular assay, luminescent readout, 384-well plate format (AID 1394); format: functional;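 note: MDM2 E3 inhibitors raise luminescence so EC50 is for signal enhancement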
Coagulation factor XII = target: T2, Coagulation factor XII (Homo sapiens, UniProt P00748); format: functional;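 note: activated factor XIIa alpha cleaving a fluorogenic AMC peptide substrate; inhibitor potency from loss of enzyme activity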
T2 sequence (P00748 whole entry): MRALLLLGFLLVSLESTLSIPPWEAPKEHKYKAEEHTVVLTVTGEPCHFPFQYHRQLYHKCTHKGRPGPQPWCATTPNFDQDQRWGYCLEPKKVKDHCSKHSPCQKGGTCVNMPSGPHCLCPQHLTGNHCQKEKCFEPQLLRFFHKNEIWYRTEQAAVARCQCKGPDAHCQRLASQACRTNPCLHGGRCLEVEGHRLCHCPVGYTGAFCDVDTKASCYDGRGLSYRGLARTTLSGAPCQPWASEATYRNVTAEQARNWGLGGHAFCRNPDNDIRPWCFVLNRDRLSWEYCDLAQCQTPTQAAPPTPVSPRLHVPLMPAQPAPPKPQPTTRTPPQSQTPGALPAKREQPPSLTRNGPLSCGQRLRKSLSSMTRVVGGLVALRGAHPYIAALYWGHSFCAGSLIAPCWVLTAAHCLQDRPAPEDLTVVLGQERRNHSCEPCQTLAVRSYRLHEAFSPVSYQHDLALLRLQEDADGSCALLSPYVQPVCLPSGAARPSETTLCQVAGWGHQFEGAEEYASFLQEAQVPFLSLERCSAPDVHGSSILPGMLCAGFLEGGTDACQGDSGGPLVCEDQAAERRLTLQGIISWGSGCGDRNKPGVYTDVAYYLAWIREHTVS

[3] = target: Mitogen-activated protein kinase 10 (Homo sapiens, UniProt P53779); assay: Dose response biochemical screening assay for inhibitors of c-Jun N-Terminal Kinase 3 (JNK3). [Related pubchem assays: 746 ]
[4] = target: T3, Mannose-6-phosphate isomerase (Homo sapiens, UniProt P34949); assay: human PMI inhibitors, high substrate, primary screen, biochemical, fluorescence intensity, high mannose 6-phosphate (AID 1220)
T3 sequence (P34949 whole entry): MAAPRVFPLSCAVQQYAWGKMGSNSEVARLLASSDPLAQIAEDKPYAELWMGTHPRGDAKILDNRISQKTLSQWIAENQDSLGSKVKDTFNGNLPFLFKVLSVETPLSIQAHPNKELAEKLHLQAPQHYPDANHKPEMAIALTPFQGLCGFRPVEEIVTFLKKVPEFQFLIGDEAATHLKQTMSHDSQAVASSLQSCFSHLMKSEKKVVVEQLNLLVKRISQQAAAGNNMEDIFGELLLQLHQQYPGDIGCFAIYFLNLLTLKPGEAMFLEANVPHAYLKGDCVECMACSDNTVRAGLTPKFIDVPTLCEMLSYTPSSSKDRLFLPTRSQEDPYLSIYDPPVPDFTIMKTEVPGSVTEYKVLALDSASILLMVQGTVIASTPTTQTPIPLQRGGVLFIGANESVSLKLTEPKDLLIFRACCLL

Nonstructural protein 1 = Nonstructural protein 1 (Influenza A virus, UniProt Q194T2); format: functional, Influenza A virus (A/California/07/2009(H1N1))
SUMO-activating enzyme [5] = target: T4, SUMO-activating enzyme (Homo sapiens, UniProt Q9UBT2); assay: SUMOylation inhibitor hit validation, confirmation, SUMOylation inhibitor project, biochemical, AlphaScreen (AID 2018); format: functional
[6] = target: Bifunctional protein GlmU (Mycobacterium tuberculosis, UniProt P9WMN3); assay: Inhibitors of Mycobacterial Glucosamine-1-phosphate acetyl transferase (GlmU). Secondary screen.; set-up: species or system Mycobacterium tuberculosis H37Rv
SUMO-activating enzyme [7] = target: T4, SUMO-activating enzyme; assay: inhibitors of in vitro SUMOylation cascade, primary screen, biochemical, HTRF, uHTS (AID 2006); format: protein-complex assay
[8] = ZM109 Env clade C HIV-1 fusion inhibitors, dose response, HeLa effector, CEM target cells, luciferase, cherry-pick (AID 652058); format: functional, cell-based
[9] = cytotoxicity in HEK-293T NF-kB-Luc cells, dose response, cytotoxicity control for B/T-cell NF-kB inhibitor project, cell-based, uHTS hits (AID 489019); format: functional;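 note: IC50 reflects cytotoxicity as loss of cell viability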
[10] = MC4R antagonists, dose response, counter-screen for LGR2 antagonist project, cell-based, plate reader, cherry pick (AID 743444); format: functional;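 note: transfected HEK 293 cells stimulated with alpha-MSH peptide; potency of inhibitors of the alpha-MSH evoked signal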
[11] = A549 cell cytotoxicity, dose response, cytotoxicity control, plate reader, cherry-pick, antagonist series (AID 743412); format: functional, cell-based
Jurkat = assay: antigen receptor-induced NF-kB inhibitors, dose response, Jurkat, luciferase reporter, luminescence, B- and T-cell (AID 489004); format: functional, cell-based; conditions: Homo sapiens;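 note: NF-kB luciferase reporter Jurkat cells stimulated with PMA plus ionomycin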
Paired box protein Pax-8 = Paired box protein Pax-8 (Homo sapiens, UniProt Q06710); assay: inhibitors of PAX8-driven TPO luciferase reporter, dose response, RMG-I cells, cherry-pick (AID 687027); format: functional, cell-based;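 note: luciferase reporter driven by Pax8 target thyroperoxidase promoter measured by SteadyGlo luminescence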
[12] = HEK293 cell cytotoxicity, dose response, cytotoxicity control, plate reader, cherry-picked samples (AID 743446); format: functional, cell-based
[13] = off-target signal loss in HeLa-CEM21 co-culture – HeLa F-luc CTL cells, cherry-picked, counter-screen for HIV-1 Env fusion inhibitor project, dose response (AID 652040); format: functional, cell-based;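 note: potency for signal decrease marking cytotoxic or nonspecific inhibition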
[14] = inhibitors of clade B AD8 Env fusion, dose response, cell-based, cherry-pick (AID 652062); format: functional;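 note: luciferase signal from cell-cell fusion driven by HIV-1 clade B AD8 Env; potency is for inhibitors of fusion seen as a drop in luminescence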
[15] = target: T5, Heat shock factor protein 1 (Mus musculus, UniProt P38532); assay: inhibition of MG132-induced HSE-luciferase signal, confirmation, cell-based, NIH3T3, luminescence, dose retest (AID 2382); format: functional;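 note: NIH3T3 fibroblasts with HSF1-driven luciferase reporter stressed by proteasome inhibitor MG132; luminescence from HSF1-driven luciferase expression after 8 hours of MG132 stress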
T5 sequence (P38532 whole entry): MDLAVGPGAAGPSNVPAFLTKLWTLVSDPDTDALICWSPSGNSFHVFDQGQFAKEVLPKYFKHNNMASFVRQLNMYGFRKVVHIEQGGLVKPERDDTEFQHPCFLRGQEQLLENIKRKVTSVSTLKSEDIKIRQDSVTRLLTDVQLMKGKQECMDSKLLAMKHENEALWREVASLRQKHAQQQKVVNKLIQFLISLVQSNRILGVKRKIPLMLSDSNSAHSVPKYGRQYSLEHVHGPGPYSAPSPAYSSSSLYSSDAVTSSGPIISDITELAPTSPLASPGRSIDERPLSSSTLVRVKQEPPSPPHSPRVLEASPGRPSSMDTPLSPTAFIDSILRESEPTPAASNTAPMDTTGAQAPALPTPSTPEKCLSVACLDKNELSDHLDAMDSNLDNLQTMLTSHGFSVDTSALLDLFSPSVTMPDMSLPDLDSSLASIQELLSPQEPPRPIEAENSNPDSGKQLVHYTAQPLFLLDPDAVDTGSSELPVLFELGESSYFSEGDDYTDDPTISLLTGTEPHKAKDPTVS

[16] = inhibitors of HIV Env-driven cell fusion, dose response, cherry-pick (AID 652057); format: functional, cell-based
[17] = target: Heat shock protein HSP 90-alpha (Homo sapiens, UniProt P07900); assay: Luminescence-based dose response biochemical high throughput screening assay for inhibitors of the Heat Shock Protein 90 (HSP90). [Related pubchem assays: 1831 (Summary AID.), 1846 (Confirmation screen.), 1789 (Primary screen.)]
[18] = LGR2 antagonists, dose response, cell-based, HEK293, CRE-luciferase reporter, cherry pick, set 2 (AID 743343); format: functional;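 note: transfected cells were stimulated with diluted bursicon conditioned medium after compound addition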
[19] = target: T6, Tyrosine-protein phosphatase non-receptor type 7 (Homo sapiens, UniProt P35236); assay: inhibitors of human HePTP phosphatase, […], biochemical, absorbance, leukemia target (AID 521); format: functional
T6 sequence (P35236 whole entry): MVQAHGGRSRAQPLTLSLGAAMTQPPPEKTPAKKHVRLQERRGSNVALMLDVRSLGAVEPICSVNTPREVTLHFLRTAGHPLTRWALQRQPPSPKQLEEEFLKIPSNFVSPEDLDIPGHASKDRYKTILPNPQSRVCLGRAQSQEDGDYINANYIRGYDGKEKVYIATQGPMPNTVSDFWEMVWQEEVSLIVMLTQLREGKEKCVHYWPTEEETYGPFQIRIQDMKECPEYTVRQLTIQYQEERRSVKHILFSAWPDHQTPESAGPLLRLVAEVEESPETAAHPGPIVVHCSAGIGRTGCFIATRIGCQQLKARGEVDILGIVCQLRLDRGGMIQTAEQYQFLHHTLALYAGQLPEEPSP

T4 sequence (Q9UBE0 whole entry): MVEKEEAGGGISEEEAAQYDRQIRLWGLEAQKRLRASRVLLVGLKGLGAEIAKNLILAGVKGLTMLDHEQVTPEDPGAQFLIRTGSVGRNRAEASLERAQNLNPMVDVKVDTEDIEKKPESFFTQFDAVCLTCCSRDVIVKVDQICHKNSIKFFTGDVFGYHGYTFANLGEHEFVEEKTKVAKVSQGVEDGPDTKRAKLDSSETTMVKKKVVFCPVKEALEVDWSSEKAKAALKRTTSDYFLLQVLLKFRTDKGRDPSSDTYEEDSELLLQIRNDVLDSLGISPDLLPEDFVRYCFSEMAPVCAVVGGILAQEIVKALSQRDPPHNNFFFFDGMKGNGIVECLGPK
T4 sequence (Q9UBT2 whole entry): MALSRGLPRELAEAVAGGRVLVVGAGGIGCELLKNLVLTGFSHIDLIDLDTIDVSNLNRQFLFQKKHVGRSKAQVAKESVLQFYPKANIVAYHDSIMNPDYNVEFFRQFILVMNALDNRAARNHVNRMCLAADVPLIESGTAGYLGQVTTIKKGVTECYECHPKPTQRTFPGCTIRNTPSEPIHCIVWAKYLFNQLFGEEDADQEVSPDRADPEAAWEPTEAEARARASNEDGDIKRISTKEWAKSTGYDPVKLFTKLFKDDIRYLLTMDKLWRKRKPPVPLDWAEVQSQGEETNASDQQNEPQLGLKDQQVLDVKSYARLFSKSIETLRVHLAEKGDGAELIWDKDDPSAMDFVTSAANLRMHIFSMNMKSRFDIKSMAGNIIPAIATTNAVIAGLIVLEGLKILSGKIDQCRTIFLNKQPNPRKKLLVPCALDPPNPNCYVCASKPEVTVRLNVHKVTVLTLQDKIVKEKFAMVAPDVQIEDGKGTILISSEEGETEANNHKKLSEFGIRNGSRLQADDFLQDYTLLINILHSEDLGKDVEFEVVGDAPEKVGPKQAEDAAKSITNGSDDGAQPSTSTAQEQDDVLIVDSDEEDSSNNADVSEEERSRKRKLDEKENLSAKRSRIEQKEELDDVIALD
Sequence of Bifunctional protein GlmU (P9WMN3 whole entry): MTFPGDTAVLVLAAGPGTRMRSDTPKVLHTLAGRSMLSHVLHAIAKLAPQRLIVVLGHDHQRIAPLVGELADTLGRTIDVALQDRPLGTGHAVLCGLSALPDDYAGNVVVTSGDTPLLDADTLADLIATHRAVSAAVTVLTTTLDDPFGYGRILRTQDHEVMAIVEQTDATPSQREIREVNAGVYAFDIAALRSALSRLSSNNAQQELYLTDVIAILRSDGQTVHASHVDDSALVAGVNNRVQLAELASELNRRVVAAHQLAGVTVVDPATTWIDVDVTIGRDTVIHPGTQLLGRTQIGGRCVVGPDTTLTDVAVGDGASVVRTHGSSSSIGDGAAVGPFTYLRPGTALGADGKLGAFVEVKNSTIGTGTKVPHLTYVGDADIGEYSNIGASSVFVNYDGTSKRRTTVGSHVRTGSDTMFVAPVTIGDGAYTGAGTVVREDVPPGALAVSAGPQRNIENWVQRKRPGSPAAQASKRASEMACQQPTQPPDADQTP
Sequence of Paired box protein Pax-8 (Q06710 whole entry): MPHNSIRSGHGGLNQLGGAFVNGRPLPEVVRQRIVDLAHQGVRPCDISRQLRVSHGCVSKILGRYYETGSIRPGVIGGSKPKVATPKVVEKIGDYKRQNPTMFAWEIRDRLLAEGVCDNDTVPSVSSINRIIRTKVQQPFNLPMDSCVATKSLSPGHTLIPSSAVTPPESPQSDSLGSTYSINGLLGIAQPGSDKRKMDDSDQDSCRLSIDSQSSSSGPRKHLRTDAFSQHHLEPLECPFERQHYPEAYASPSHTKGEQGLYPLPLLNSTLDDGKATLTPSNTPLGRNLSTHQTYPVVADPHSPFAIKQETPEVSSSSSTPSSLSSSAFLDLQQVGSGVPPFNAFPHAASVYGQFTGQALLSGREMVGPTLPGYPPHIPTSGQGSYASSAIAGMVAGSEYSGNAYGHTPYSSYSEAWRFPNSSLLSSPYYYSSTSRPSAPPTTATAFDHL
Sequence of Mitogen-activated protein kinase 10 (P53779 whole entry): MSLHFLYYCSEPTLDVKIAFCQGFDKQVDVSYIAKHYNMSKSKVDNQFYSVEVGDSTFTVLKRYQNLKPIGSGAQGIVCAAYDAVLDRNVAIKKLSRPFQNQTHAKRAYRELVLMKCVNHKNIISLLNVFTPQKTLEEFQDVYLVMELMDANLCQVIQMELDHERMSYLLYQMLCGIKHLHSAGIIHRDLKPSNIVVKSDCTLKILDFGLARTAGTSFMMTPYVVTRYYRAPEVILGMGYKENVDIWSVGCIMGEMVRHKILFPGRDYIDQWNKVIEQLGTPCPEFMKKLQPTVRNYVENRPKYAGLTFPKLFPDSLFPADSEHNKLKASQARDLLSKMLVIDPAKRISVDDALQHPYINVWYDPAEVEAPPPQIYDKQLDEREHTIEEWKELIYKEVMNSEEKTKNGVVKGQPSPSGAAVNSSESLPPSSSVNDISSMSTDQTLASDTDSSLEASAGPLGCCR
Sequence of E3 ubiquitin-protein ligase Mdm2 (Q00987 whole entry): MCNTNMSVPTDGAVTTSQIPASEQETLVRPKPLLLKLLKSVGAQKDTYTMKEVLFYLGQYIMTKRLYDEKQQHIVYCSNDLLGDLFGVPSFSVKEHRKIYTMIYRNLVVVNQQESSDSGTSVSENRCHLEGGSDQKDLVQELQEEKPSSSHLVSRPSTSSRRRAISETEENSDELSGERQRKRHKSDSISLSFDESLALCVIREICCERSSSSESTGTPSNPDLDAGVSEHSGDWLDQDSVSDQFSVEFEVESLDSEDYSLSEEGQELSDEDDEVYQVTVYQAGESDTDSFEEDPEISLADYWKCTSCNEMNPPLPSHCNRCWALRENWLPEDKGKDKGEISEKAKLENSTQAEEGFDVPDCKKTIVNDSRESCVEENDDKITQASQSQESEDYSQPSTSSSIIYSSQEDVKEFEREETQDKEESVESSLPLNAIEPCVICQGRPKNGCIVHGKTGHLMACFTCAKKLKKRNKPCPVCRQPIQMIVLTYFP
Sequence of Nonstructural protein 1 (Q194T2 whole entry): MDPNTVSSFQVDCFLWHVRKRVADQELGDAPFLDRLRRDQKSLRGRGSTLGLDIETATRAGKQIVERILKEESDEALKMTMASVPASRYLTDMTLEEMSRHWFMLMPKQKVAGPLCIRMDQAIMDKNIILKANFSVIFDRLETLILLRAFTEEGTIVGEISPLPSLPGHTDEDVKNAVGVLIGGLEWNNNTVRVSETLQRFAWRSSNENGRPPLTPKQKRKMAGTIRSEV

O=C1CCN(Cc2ccccc2)S(=O)(=O)c2ccccc21
IC50 [1]: 39.3 µM (active)
EC50 [2]: 3.06 µM (not active)

NC(=O)c1c(NC(=O)C2CCCO2)sc2c1CCC2 (stereo not drawn)
IC50 (Coagulation factor XII): > 50 µM (inactive)
IC50 [3]: 42.5 µM (not active)

Nc1ccccc1NC1CCCCC1
IC50 [4]: > 50 µM (not active)
IC50 (Nonstructural protein 1): 64.8 µM (active)

N#C/C(=C/c1ccc(-c2cc(C(=O)O)cc(C(=O)O)c2)o1)c1nc2ccccc2s1
IC50 (SUMO-activating enzyme [5]): 2.81 µM (active)
IC50 [6]: 19.1 µM (active)
IC50 (SUMO-activating enzyme [7]): 15.9 µM (active)

O=C(CN1C(=O)c2ccccc2S1(=O)=O)c1ccc2c(c1)OCCO2
AC50 [8]: 1.08 µM (active)
IC50 [9]: > 80 µM (inactive)
AC50 [10]: 0.206 µM (active)
AC50 [11]: 22.9 µM (active)
IC50 (Jurkat): 0.17 µM (active)
AC50 (Paired box protein Pax-8): 1.64 µM (active)
AC50 [12]: > 52 µM (inactive)
AC50 [13]: 0.556 µM (active)
AC50 [14]: < 0.26 µM (active)
EC50 [15]: 0.418 µM (active)
AC50 [16]: 0.339 µM (active)
IC50 [17]: 1.39 µM (active)
AC50 [18]: 0.126 µM (active)

CC(=O)Oc1oc(-c2ccccc2)nc1/C=N/c1ccccn1
IC50 [19]: > 100 µM (not active)

From ChEMBL document CHEMBL1201862, “PubChem BioAssay data set” (2004)
